Experimental data published in US10034828B2, “Hair treatment systems and methods using peptides and other compositions” (priority 2013, dated 2018).
Values belong to the compound of their own block, whether it stands above or below them.

Legend:
[1] = Nitric oxide absorption by carriers (weight gain on bubbling NO gas); type: physicochemical; settings: NO gas bubbled 40 hr, 25 ° C.
Experimental: This example illustrates one technique for preparing a composition in accordance with one embodiment of the invention. An accurate amount of a carrier (HNC 167-62) (see below) was introduced into a system. The carrier weight used in these experiments was approximately 250 g and the vessel size was 500 ml. The vessel was equipped with a mechanical stirrer, gas inlet, and gas outlet and was previously purged with argon for about an hour. The temperature of the carrier was kept at about 25-30° C. NO gas regulated at 5 psi (1 psi is about 6,900 Pa) and was then introduced at a controlled rate of about 1 bubble/s with continuous stirring. […] After 6 hours, the weight of the carrier had increased by 0.15%, by 12 hours by 0.25%, and by 24 hours by 0.56%. These increases in weight were believed to be significant considering the relative small molecular weight of NO versus the carrier. […] The carrier also can solidify upon cooling if the carrier is initially a solid at lower temperature.
Each carrier was taken in a 500 mL three necked flask equipped with a mechanical stirrer, gas inlet and a gas outlet. The system was purged with argon for one hour at room temperature (25° C.). Then nitric oxide gas was bubbled into the system. Then, nitric oxide gas was bubbled through carrier for stipulated amount of time. The changes in weight and color were noted. […]

[2] = Carrying of TRH peptide by carrier formulations; type: physicochemical; settings: TRH concentration of 5.0 mg/cc
From the text: Any of the above compositions are effective as carriers for peptides and nitric oxide.

[3] = tested on: capillary circulation of the skin; assay: Laser Doppler circulation study in five human subjects (Example 8); type: in vivo; settings: positive control formulation containing 0.1% methyl nicotinate
From the text: This example illustrates delivery of nitric oxide formulations to five human subjects, using procedures and formulations similar to those discussed in Example 5. Each person served as their own control for the testing. A Moor Instruments Laser Doppler was used to determine circulation. […] The formulations used produce positive, almost immediate results when applied to the skin which, in these studies, was manifested by vasodilatation of the cutaneous vascular system.
For each subject, the following creams were applied: a negative control formulation (containing no NO), 0.010 gram of a 10,000 ppm NO formulation, 0.020 gram of a 10,000 ppm NO formulation, and a positive control formulation containing 0.1% methyl nicotinate. The formulations were prepared using procedures similar to those discussed in Example 1.

[4] = tested on: micro-capillary blood flow to skin; assay: Laser Doppler capillary blood flow in humans, 10,000 ppm NO in closed Hilltop chamber (Example 5); type: in vivo, human; settings: applied to the skin at 1/10% in alcohol
From the text: The formulation used in these studies contained nitric oxide dispersed in a lipid matrix. […] Nitric oxide is a very rapid acting molecule, and these studies used a system that employed laser Doppler with a covered chamber. The formulation was placed into the chamber and then attached to the skin by an adhesive layer on the covering. This provided a stable measuring device as determined by multiple normal evaluations of the capillary blood flow without treatment of nitric oxide.
A known positive control, methyl nicotinate, was applied to the skin at a concentration of 1/10% in alcohol. […] The vascular dynamics are such that when the blood vessels dilate physical parameters follow Bernoulli's law. […] The laser Doppler device accurately measured these parameters.
In these studies, the participants were healthy females aged 30 to 55 years. They were in good health as determined by the medical history and were not taking any prescription medications. All study participants read and signed the informed consent statement prior to any study procedures being performed. […]
A Moor Instruments DRT4 Laser Doppler Blood Flow Monitor (Devon, England) was used in these studies. The laser Doppler technique measured blood flow in the microcapillaries of the skin that are close to the skin surface and the blood flow in underlying arterioles and venules that help to regulate skin temperature. […]

Compound: OCCCO [1,3-Propanediol, 1,3-propanediol]
% Wt. gain [1]: 0.09%
Wt. Gain g [1]: 0.16 g

carrying of the peptide by formulations HNC 156-43, HNC 156-50, HNC 156-47, HNC 159-136 [2]: effectively carried
Compound: NC(=O)[C@@H]1CCCN1C(=O)[C@H](Cc1cnc[nH]1)NC(=O)[C@@H]1CCC(=O)N1 [TRH, thyrotropin-releasing hormone]

Compound: COC(=O)c1cccnc1 [methyl nicotinate]
vasodilatation [3]: vasodilatation was observed
laser Doppler response to positive control [4]: rapid response typical of the vasodilator
